# Where two headings read alike, the source gives them in different places.
# How the values were obtained:
# [1] = system: soybean suspension cells; conditions: cited from earlier work
# [2] = system: NT1 tobacco cell growth; experiment: Effects of MTI on NT1 tobacco cell growth and single cell production in glycerol medium; assay type: cell-based
# Procedure: The effects of Microtubule inhibitors (MTI) on tobacco cell growth in suspension culture were examined. […] Both the control and MTI-containing flasks contained a final concentration of 0.5-0.1% (v/v) DMSO. The growth of these chemicals was evaluated in EP12 medium for BY2 cells and NT1B medium for BTI-NT1 cells were the carbon source is substituted with 3% glycerol. The response of these cells was compared with the same medium composition but with 3% sucrose as the Carbon source.
# [3] = system: BY2, NT1, Petite Havana (PH) and Xanthi (Xan) and Jimson Weed (JM) Suspension Cells; experiment: Effects of tubulin inhibitors on growth and cell separation, all suspension types tested; assay type: cell-based
# From the text: BY2 suspension-cultured cells were obtained from Japan tobacco and maintained in LSBY2 medium in a 7 day cycle. Jimsonweed suspension and Pettite Havana tobacco suspensions were initiated from callus initiated at DAS and Xanthi suspensions were procured as a sample from Professor Jack Widholm from UIUC, IL. JT-NT1 suspension cells, obtained from Washington University that are maintained in NT1B medium in 7 day cycle were used only for the pectin degradation enzyme study to separate the cells into single cells. The cells were cultured in shake flasks at 25-28° C. in dark on orbital shakers at 150 rpm. […] Stock concentrations of both the tubulin polymerization inhibitors used in this investigation were dissolved in DMSO to prepare a 0.5 M stock solution. The concentration tested for the pectinase and pectolyase enzymes were in the range of 0.0005% to 0.005%. […] NT-1 cells were originally developed from Nicotiana tabacum L. cv. bright yellow 2.
# Cell expansion and separation were observed by light microscopy (with Nomarski and dark field optics). Spherical cells and single cells were counted by using a hemacytometer to determine the degree of cell expansion and separation, respectively. […] In order to determine the presence of the cell wall in this single cell cultures optical brightener was used. Calcafluor obtained from Sigma, which is a specific fluorescent dye for cellulose is used in this study, and the cellulose-Calcafluor complexing was observed by fluorescence microscopy (Zeiss Photomicroscope). […] Prior to use, the Calcafluor stain was centrifuged at 15,000 g for 2 min. to remove precipitates. A drop or two of the Calcafluor solution was added to the separated cells.
# [4] = system: Carrot suspension cultures; experiment: Single cell production from carrot suspension cultures; parameters: colony growth after plating single cells on M-medium: dose or concentration left out as unconfirmed
# Procedure: Carrot callus cultures have been initiated from the in vitro maintained Daucus carota L. ssp. sativus cv Sativa plants. Isolated leaf petiole explants were cultured on semi solid medium (Mashayekhi-Nezamabadi, 2000). Suspension cultures were initiated from the callus by transferring 50 mg of friable callus in 1.5 ml of LSBY2 medium (Appendix I) in 24 micro well plate. The fastest growing suspensions were then transferred to flasks with 1 ml suspension in 35 ml LSBY2 liquid medium. The cultures were maintained in diffused light in a 7 day sub culture cycle.
# A 1.5-ml diluted single cell cultures were plated on M-medium (Appendix II) in 15×100 Petri-plates and spread out using the loop. Untreated carrot suspension aggregates were also diluted to the same density and plated similarly to compare the growth responses between these cultures.
# LSBY2 medium consists of Murashige and Skoog macro and micro-salts (Murashige and Skoog 1962) supplemented with 30 g sucrose (w/v), 100 mg/l myoinositol, 200 mg/l KH2PO4, 1 mg/l thiamine and […] 2,4-dichlorophenoxyacetic acid. The medium is adjusted pH 5.8 before autoclaving at 120° C. Suspension volume at the 7th day of culture, at stationary phase was used to initiate cultures. A 1-ml volume of carrot suspension inoculums is transferred into 50 ml LSBY2 medium and then the cultures were placed on shakers at 150 rpm in the dark at 28° C. The MTI compounds used were added along with the fresh medium at the culture initiation cycle.
# A regenerable carrot cryopreserved line (D2-40-018) was thawed and cultured in Linsmeier-Skoog (LS) medium (Nagata, T., Nemoto, Y., and Hasezawa, S. (1992) Int. Rev. Cyto 132, 1-30). Medium salts were purchased from PhytoTechnology Laboratories, Catalog #L689. An actively growing suspension line was established within a week, and the maintenance line was sub-cultured by transferring 2 ml PCV to 58 ml of LS BY2 suspension medium at 28° C. on an orbital shaker (Innova-3300) at 125 rpm under diffused light on a 7 day culture cycle.
# [5] = system: maize suspension; experiment: Single cell production from chlorophyllous maize cell cultures; assay type: cell-based
# From the text: The maize photoautotrophi cultures were initiated and maintained in 7 day culture cycles (Jayakumar et. al. 2005). […] The maize suspension units are tightly packed into hard cell aggregates when compared to the dicot cells analyzed.
# [6] = system: JTNT1 tobacco cell suspension cultures; experiment: Single cell production, growth and viability of JTNT1 suspension with microtubule inhibitors in 24-well plates, glycerol medium
# From the text: JTNT1 Tobacco Suspension Cultures. […] Furthermore, Suc stabilizes preformed microtubules, making an examination of the effects of MTIs on preformed microtubules unfeasible. In addition, sucrose increases solution viscosity substantially, and tubulin polymerization is altered at least in part by slowed dimer and polymer diffusion rates. Thus, it was important to have low or no sucrose in medium where the single cell production. Thus, a new JTNT1 line habituated in Glycerol was developed for this study.
# Each of the 24 well contained 1 ml of JTNT1 suspension. The 24-well plates were kept on an Innova 4900 Multi Environmental Shaker with special clamps and harnesses to allow stacking of plates up to 6 plates high. The plates were rotated at a speed of 130 rpm and 25° C. in dark.
# Single Cell Production. Each compound was dissolved in dimethyl sulfoxide (DMSO) to provide 0.5 Molar stock solutions. One ml of JTNT1 suspension (1 ml PCV/20 ml tobacco media) was added to each well of the 24 well plates. To each well an individual chemical was added to achieve the desired concentrations (at 1 μM, 3 μM, and 10 μM). The cultures were allowed to grow for 7 days on the Innova Shaker. Each day turbidity measurements was taken on each well using a SpectraMax M2^e by Molecular devices (set at 600 absorbance, with 5 readings taken per well). On day 7, cells were observed using the Leica 5000 inverted confocal microscope for formation of single cells and cell viability.
compound,measurement,setting,value
COc1cc2c(c(OC)c1OC)-c1ccc(OC)c(=O)cc1[C@@H](NC(C)=O)CC2 [Colchicine],viable cells,[1]; 1 mM colchicine,44.8%
same,concentration in culture medium for cell separation,[1],0.1 to 1.0 mM
same,concentration effective for the production of single cells,[2],0.25 to 0.5 mM
same,cell expansion and separation,"[3]; 0.5 mM colchicine, all the other cell suspensions tested",partially occurred
same,character of single cell production,[4],homogenous production of single cells
same,time of single cell production,[4]; 1 mM,3 to 7 days
same,nuclear ploidy of single cells,"[4]; 1 mM, 14-21 days of continuous treatments",nuclear polyploidy
same,viability by fluorescein diacetate stain,"[4]; 1 mM, 4 days and 11 days",very active and viable
same,frequency of nuclear polyploidy,"[4]; 1 mM, cultures up to 14 days",< 1%
same,nuclei of super single cells,"[4]; 1 mM, up to 28 days",extensive lobed nuclei
same,colony growth after plating single cells on M-medium,"[4]; 7 days in colchicine, 4 weeks growth in the dark",several discrete colonies
same,concentration at which active in releasing single cells,[5],above 0.5 mM
same,"concentration necessary to produce single cells, lower end of range",[6],≥ 50 µM
same,"concentration necessary to produce single cells, upper end of range",[6],≤ 2 mM
same,increase in diameter of single cells,[6]; NT1B medium with 3% glycerol,5 fold
CCOC(=O)COc1nn(-c2ccccc2)c(-c2ccccc2)c1Cl [DAS-PMTI-1],"concentrations causing inhibition of mitosis, and cell death",[2],over 100 nM
same,threshold of tobacco cell growth inhibition,[2],~50 nM
same,micro-nuclei in single cells (microscopic observations),[2]; 25 nM,did not show the presence of micro-nuclei
same,fresh weights versus controls during the stationary phase,"[2]; 25 nM (sentence ends with 50 nM), 3% glycerol",slightly greater
same,growth rate of the cells,"[2]; 25 nM, over a period of 10 days",not lowering the growth rate
same,effect on growth,[2]; 0.5-1.0 mM,complete inhibition and cell death
same,time to complete inhibition and cell death,"[2]; 0.5-1.0 mM, from culture initiation",≤ 3 days
same,concentration effective for the production of single cells,"[2]; glycerol as total carbon source, NT1 cells",5e-06 to 2.5e-05 mM
same,potency relative to colchicine in affecting the growth of the cultures,[3],100-1000 ×
same,cell growth,[3]; 0.5 mM,affected very significantly
same,cell death,"[3]; 0.5 mM, after 7 days of treatment",considerable cell death
same,cell segregation,[3]; all the cell suspension types tested,partial segregation of cells with general spherical shape
same,character of single cell production,[4],assorted cell shapes
same,biomass versus respective controls,"[6]; 1 uM, sucrose or glycerol medium",did not reduce the biomass of the cells significantly

# — patent US8206983B2, “In vitro methods for the induction and maintenance of plant cell lines as single suspension cells with intact cell walls” (Dow AgroSciences, LLC., priority 2006, dated 2012)
